Laboratory results reported in patent publication US5486532A, “Benzospiroalkenes” (Adir et Compagnie, priority 1993, dated 1996).
pEC50: −log10 of the molar value.

Columns and labels:
dog femoral arteries = assay: Contraction of isolated dog femoral arteries; details: Canis lupus familiaris; for pEC50: dog femoral artery rings, cumulative doses; for Emax: maximum contraction relative to 100 mM KCl, dog femoral artery, read-out: ARTERY Max
Method: (§1) The technique used is based on that described by Fowler et al. (J. Pharmacol. Exp. Ther., 229, 712-718, 1984). Male or female mongrel dogs of approximately 15-25 kg were used as organ sources. The animals are anesthetized with pentobarbital (30 mg/kg intravenously). The legs are incized and the blood vessels removed. They are placed in Krebs-Ringer liquid (118 mM NaCl; 25 mM NaHCO3; 10 mM Glucose; 4.7 mM KCl; 1.25 mM CaCl2; 1.19 mM MgSO4; 1.14 mM KH2 PO4) at room temperature and under a sparge of carbogen (95% O2, 5% CO2). These blood vessels are then carefully freed of their fat and then cut into rings 2 mm wide and mounted under a base tension of 4 g (femoral arteries) or 1 g (saphena veins) in tanks thermostated at 37° C. containing Krebs-Ringer liquid and constantly sparged with carbogen. A lower hook constitutes the fixed point, whereas the upper hook is connected to an isometric force sensor. The variations in tension are digitized, stored on disk and processed by an information technology system. After mounting, the organs are left to rest for 90 minutes, with rinses being carried out every 30 min. After readjustment of the base tension, a contraction is induced by a single dose of KCl (100 mM). After stabilization, washing and returning to the base line, a contraction is provoqued by a single dose of phenylephrine (submaximal concentration) in order to regulate the following contractions. After washing and returning to the baseline, an effect/concentration curve is produced by addition of cumulative doses of agonist (the space between the doses is a semi-log). This experiment makes it possible to calculate the 50% effective concentration (EC50) in the following way: the tension values are first of all converted to percentages relative to the maximum effect induced by 100 mM of KCl. This EC50 is determined by non-linear regression by the SIMPLEX method (M. S. Caceci, Byte, 340-362, 1984), calculated according to the mass action law model of L. Michaelis and M. L. Menten (Biochem. Zeitschrift, 49, 333-369, 1913).
(§2) E=(Emax*C^n)(EC^n +C^n) with E=effect; Emax=maximum effect; C=concentration; EC=EC50; n=Hill number
(§3) The products of the invention contract dog arteries and veins. The maximum for these contractions approaches that obtained with KCl.

saphena veins = assay: Contraction of isolated dog saphena veins; details: Canis lupus familiaris; for pEC50: dog saphena vein rings, cumulative doses; for Emax: maximum contraction relative to 100 mM KCl, dog saphena vein, read-out: VEIN Max
Method: as §1, §2, §3

[1] = system: arterial pressure in amyelated rats; assay: In vivo study in amyelated rats, arterial pressure; design: species or system Sprague Dawley rats; details: Rattus norvegicus, iv, tertatolol pretreated, no prazosin or yohimbine, read-out: C20 Control (concentration which increases the pressure by 20 mmHg)
Excerpt: (§4) Male Sprague Dawley rats (300-400 g) are anesthetized with ether. The trachea is cannulated, the spinal column is destroyed using a stainless-steel rod and the animal is 1. 5 immediately placed under artificial respiration. The vagus nerves are dissected. The carotid arteries are ligatured and a catheter is placed in one and serves to record the arterial pressure. Three other catheters are placed in the jugular veins and in the vein of the penis and serve for the injections. The temperature of the animals is maintained at 36° C. The animal is pretreated by an injection of tertatolol […]. The animal is also pretreated 10 minutes later with prazosin ([…]) or yohimbine (1 mg/kg) when it is desired to determine the alpha1 - or alpha2-adrenergic properties of the product. Ten minutes later, increasing cumulative doses of product are injected every 20 seconds. The variations in arterial pressure are detected using a Statham P23XL pressure cell and are recorded. The pressure values are expressed in mmHg. This experiment makes it possible to calculate the concentration which increases the pressure by 20 mmHg (C20) by non-linear regression according to the mass action law model of Michaelis and Menten as described above. The maximum effect obtained is subsequently convened to a percentage relative to the maximum effect induced by phenylephrine. The alpha1 - or alpha2-adrenergic components of the product are evaluated using the C20 ratio obtained in the presence of prazosin or yohimbine on the values obtained in the absence of these antagonists. In amyelated rats, the products of the invention produce hypertensions which are sensitive to prazosin and to yohimbine.

alpha1-adrenergic = assay: Amyelated rats, alpha1-adrenergic component (C20 ratio with prazosin); format: in vivo, Sprague Dawley rats; details: pretreated with prazosin
Excerpt: as §4

alpha2-adrenergic = assay: Amyelated rats, alpha2-adrenergic component (C20 ratio with yohimbine); format: in vivo, Sprague Dawley rats; details: pretreated with yohimbine (1 mg/kg)
Excerpt: as §4

Compound | pEC50 (dog femoral arteries) | Emax (dog femoral arteries) [%] | pEC50 (saphena veins) | Emax (saphena veins) [%] | ED (20 mmHg) [1] [µg/kg] | Ratio treated C20 / control C20, Prazosin (alpha1-adrenergic) | Ratio treated C20 / control C20, Yohimbine (alpha2-adrenergic)
Clc1cccc2c1CC1(CC2)CNC=N1 (single isomer, unassigned) [Example 6, Spiro[(1,3-diazacyclopent-1-ene)-5:2'-(8'-chloro-1',2',3', 4'-tetrahydronaphthalene)]L-(+)-tartrate, αisomer] | 5.70 | 91 | 5.15 | 96 | 0.1 | 1.7 | 4.0
Oc1cccc2c1CC1(CC2)CNC=N1 (centres unmarked) [Example 5, Spiro[(1,3-diazacyclopent-1-ene)-5:2'-(8'-hydroxy-1',2',3', 4'-tetrahydronaphthalene)]fumarate] |  |  |  |  | 4.8 | 0.9 | 12.0
Clc1cccc2c1CC1(CC2)CNC=N1 (centres unmarked) [Example 1, Spiro[(1,3-diazacyciopent-1-ene)-5:2'-(8'-chloro-1', 2',3',4'-tetrahydronaphthalene)]fumarate] | 6.00 | 94 | 6.70 | 95 | 0.2 | 1.9 | 6.0
